{"source": "paper PMC3479135", "about": "“Crystal Structures of Bovine CD1d Reveal Altered αGalCer Presentation and a Restricted A’ Pocket Unable to Bind Long-Chain Glycolipids” (PLoS ONE, 2012)", "biological_target": "T1, boCD1d (bovine CD1d ectodomain with boβ2M) (Bos taurus, UniProt A1L565)", "T1 construct": "heavy-chain ectodomain (α1-α3), endogenous leader replaced by boCD1b3 leader, C-terminal hexa-His tag, no Fc; co-expressed with bovine β2m in baculovirus/insect cells; non-covalent heterodimer; N-glycosylated at Asn20 and Asn42; with Beta-2-microglobulin", "T1 sequence (A1L565 129-405)": "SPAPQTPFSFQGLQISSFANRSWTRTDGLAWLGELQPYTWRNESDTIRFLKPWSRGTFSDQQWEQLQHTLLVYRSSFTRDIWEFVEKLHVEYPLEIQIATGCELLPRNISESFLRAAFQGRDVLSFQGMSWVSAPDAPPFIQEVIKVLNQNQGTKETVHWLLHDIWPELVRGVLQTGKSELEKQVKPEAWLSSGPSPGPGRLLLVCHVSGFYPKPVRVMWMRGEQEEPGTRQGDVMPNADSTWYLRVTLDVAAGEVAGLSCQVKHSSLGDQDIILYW", "T1 sequence (P01888 21-118 partner)": "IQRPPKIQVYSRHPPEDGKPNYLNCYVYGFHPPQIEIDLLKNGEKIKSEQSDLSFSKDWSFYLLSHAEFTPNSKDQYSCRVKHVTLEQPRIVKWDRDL", "experiment": "X-ray crystal structure, […] Å; native IEF gel shift", "assay_type": "binding", "settings": "crystallised in 20% PEG 3350, 0.2 M sodium formate; IEF loading overnight at room temperature, 100 mM Tris-HCl pH 7, no Tween 20; A' and F' pockets", "data": [{"smiles": "CCCCCCCCCCCCC/C=C/[C@@H](O)[C@H](CO[C@@H]1O[C@H](COS(=O)(=O)O)[C@H](O)[C@H](OS(=O)(=O)O)[C@H]1O)NC(=O)CCCCCCCCCCC", "note": "[compound 2, C12∶0-di-sulfatide]", "values": [{"measurement": "X-ray crystal structure, 2.9 Å; native IEF gel shift", "value": "we crystallized boCD1d in complex with synthetic C12∶0-di-sulfatide (di-SLF)"}]}]}
